Experimental data reported in ChEMBL document CHEMBL5113403, “Design, synthesis, and biological evaluation of novel pyrazolo [3,4-d]pyrimidine derivatives as potent PLK4 inhibitors for the treatment of TRIM37-amplified breast cancer” (Eur J Med Chem, 2022).

Tests used:
[1] = molecular target: T1, Serine/threonine-protein kinase PLK4 (Homo sapiens, UniProt O00444); assay: Inhibition of recombinant human PLK4 incubated for 60 mins by Lanthascreen Eu kinase binding assay
T1 sequence (O00444 whole entry): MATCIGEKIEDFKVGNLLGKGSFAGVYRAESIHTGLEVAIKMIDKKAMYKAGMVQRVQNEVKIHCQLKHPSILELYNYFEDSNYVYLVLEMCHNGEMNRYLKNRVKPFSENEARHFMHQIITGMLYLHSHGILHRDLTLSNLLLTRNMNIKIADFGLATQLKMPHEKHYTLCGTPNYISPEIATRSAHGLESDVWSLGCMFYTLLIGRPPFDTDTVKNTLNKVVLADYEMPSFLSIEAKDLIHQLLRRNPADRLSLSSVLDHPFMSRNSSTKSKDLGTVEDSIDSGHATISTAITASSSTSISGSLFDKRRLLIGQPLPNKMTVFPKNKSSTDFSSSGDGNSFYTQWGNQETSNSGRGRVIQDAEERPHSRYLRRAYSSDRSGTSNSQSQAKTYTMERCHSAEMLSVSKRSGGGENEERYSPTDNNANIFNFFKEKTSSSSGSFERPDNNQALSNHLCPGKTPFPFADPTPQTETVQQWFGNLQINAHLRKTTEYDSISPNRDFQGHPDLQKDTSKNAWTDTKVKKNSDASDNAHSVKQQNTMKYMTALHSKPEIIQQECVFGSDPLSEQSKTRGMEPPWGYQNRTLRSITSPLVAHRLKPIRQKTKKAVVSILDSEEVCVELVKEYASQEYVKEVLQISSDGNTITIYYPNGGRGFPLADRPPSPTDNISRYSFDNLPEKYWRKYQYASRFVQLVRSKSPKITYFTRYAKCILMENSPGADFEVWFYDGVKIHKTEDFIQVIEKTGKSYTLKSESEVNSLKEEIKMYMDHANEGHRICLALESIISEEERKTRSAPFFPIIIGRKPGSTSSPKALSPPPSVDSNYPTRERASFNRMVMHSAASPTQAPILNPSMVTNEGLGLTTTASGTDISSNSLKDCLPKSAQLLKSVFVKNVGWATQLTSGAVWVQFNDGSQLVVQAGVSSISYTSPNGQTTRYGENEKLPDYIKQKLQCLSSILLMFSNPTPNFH

CYP2C9 = CYP2C9 (Homo sapiens, UniProt P11712); assay: Inhibition of CYP2C9 in human liver microsomes at 10 uM preincubated for 10 mins followed by addition of NADPH-regenerating system and measured after 15 mins by LC-MS/MS analysis relative to control; type: ADME, Microsome; conditions: time 25 min
[2] = molecular target: T2, Serine/threonine-protein kinase PAK 4 (Homo sapiens, UniProt O96013); assay: Inhibition of PAK4 (unknown origin) incubated for 60 mins by time-resolved HTRF assay
MCF7 = assay: Antiproliferative activity against human MCF7 cells assessed as cell growth inhibition incubated for 5 days by MTT assay; type: functional, cell-based; conditions: MCF7, 120 h
BT-474 = assay: Antiproliferative activity against human BT-474 cells assessed as cell growth inhibition incubated for 5 days by MTT assay; type: functional, cell-based; conditions: BT-474, 120 h
MDA-MB-231 = assay: Antiproliferative activity against human MDA-MB-231 cells assessed as cell growth inhibition incubated for 5 days by MTT assay; type: functional, cell-based; conditions: MDA-MB-231, 120 h
[3] = molecular target: T3, Serine/threonine-protein kinase PLK4 (Homo sapiens) (UniProt O00444); assay: Inhibition of PLK4 (unknown origin) at 2 uM relative to control
T3 sequence (whole entry): T1 sequence (O00444 whole entry)

[4] = molecular target: T2, Serine/threonine-protein kinase PAK 4; assay: Inhibition of PAK4 (unknown origin) using S2 as substrate incubated for 60 mins in the presence of ATP by time-resolved HTRF assay
[5] = molecular target: T1, Serine/threonine-protein kinase PLK4; assay: Inhibition of PLK4 (unknown origin)
CYP2D6 = CYP2D6 (Homo sapiens, UniProt P10635); assay: Inhibition of CYP2D6 in human liver microsomes at 10 uM preincubated for 10 mins followed by addition of NADPH-regenerating system and measured after 15 mins by LC-MS/MS analysis relative to control; type: ADME, Microsome; conditions: time 25 min
Sequence of CYP2D6 (P10635 whole entry): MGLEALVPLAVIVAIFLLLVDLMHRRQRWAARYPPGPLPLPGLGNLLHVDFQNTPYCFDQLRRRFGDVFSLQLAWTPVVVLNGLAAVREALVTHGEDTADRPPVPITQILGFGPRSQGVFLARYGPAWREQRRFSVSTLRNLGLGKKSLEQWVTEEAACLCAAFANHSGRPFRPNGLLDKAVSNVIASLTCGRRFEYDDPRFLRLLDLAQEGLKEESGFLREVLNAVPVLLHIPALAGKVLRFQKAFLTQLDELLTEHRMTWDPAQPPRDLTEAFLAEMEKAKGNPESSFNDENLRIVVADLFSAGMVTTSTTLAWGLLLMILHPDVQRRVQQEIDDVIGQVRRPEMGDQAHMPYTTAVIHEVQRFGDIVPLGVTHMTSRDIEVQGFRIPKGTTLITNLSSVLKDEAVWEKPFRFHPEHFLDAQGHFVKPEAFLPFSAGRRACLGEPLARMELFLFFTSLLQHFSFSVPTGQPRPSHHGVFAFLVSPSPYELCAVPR

T2 sequence (O96013 whole entry): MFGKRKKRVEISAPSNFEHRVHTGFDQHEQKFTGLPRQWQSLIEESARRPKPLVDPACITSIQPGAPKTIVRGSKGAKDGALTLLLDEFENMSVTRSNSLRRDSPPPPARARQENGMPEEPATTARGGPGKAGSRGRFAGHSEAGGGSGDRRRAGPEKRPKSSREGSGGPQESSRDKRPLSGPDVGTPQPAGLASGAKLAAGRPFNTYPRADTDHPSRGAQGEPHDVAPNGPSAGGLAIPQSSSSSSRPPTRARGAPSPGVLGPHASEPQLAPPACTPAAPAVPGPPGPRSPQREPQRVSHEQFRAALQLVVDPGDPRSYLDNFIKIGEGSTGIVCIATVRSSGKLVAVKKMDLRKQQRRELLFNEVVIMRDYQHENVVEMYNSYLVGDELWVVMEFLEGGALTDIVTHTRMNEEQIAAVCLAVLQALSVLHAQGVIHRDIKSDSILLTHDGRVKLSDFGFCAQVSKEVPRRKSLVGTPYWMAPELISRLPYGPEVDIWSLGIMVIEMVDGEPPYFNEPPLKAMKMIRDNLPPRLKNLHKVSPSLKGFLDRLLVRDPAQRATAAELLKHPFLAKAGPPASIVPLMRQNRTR
Sequence of CYP2C9 (P11712 whole entry): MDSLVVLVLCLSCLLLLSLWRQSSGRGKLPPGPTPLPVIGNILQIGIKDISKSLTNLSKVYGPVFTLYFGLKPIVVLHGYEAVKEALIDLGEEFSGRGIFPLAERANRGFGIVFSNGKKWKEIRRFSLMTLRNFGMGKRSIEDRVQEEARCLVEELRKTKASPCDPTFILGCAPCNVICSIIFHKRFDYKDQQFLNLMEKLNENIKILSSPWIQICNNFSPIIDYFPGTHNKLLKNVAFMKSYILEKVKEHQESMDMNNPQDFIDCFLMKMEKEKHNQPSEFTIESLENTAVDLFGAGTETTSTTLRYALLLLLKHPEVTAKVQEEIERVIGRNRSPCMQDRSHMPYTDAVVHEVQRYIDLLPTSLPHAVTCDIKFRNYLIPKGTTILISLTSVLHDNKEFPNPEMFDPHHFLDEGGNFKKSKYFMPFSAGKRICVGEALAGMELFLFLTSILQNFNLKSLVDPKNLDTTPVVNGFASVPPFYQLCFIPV

Compound	IC50 [1] [nM]	IC50 [2] [nM]	IC50 (MCF7) [nM]	IC50 (BT-474) [nM]	IC50 (MDA-MB-231) [nM]	also measured
CC(C)(C)c1cc(Nc2nc(NCc3ccc(F)cc3F)nc3c2cnn3C2CCOCC2)n[nH]1	726	–	–	–	–	–
Cc1cc(Nc2nc(NCc3ccc(Cl)cc3)nc3c2cnn3-c2ccc(F)cc2)n[nH]1	241	–	–	–	–	–
Nc1ccc(S(=O)(=O)Nc2ccnn2-c2ccccc2)cc1 [SULFAPHENAZOLE]	–	–	–	–	–	inhibition at 0.25 h, 10 µM (CYP2C9): 81.4%
Cc1cc(Nc2nc(Cl)nc3[nH]ncc23)n[nH]1	489	5940	–	–	–	–
Cc1cc(Nc2nc(NCc3ccc(C#N)cc3)nc3[nH]ncc23)n[nH]1	10.5	–	6060	12100	1360	–
Cc1cc(Nc2nc(NCc3cccc(Cl)c3)nc3[nH]ncc23)n[nH]1	5.5	611	5620	12800	6860	–
Cc1cc(Nc2nc(NCc3ccc(Cl)cc3)nc3[nH]ncc23)n[nH]1	0.3	515	860	11700	7500	–
Cc1cc(Nc2nc(NCc3ccc(F)cc3F)nc3c2cnn3C(C)C)n[nH]1	1.1	–	4320	17300	5350	–
Cc1cc(Nc2nc(NCc3ccc(Cl)cc3)nc3c2cnn3C2CCCCC2)n[nH]1	47.9	–	–	–	–	–
Cc1cc(Nc2nc(NCc3ccc(Cl)cc3)nc3c2cnn3C2CCNCC2)n[nH]1	7	–	790	2350	3220	–
Cc1cc(Nc2nc(NCc3ccc(Br)cc3)nc3[nH]ncc23)n[nH]1	5.6	1320	5340	4110	1860	–
Cc1cc(Nc2nc(NCc3ccc(F)cc3)nc3[nH]ncc23)n[nH]1	0.8	395	970	8750	8410	–
Cc1cc(Nc2cc(Cc3ccccc3)nc(NC3CCNCC3)n2)n[nH]1	–	–	–	–	–	inhibition [3]: 58.4%; IC50 [4]: 5.9 nM; IC50 [5]: 351 nM
COc1ccc(CNc2nc(Nc3cc(C)[nH]n3)c3cn[nH]c3n2)cc1	6.5	–	3320	8230	1320	–
Fc1ccc(CNc2nc(Nc3cc(C4CC4)[nH]n3)c3cnn(C4CCOCC4)c3n2)c(F)c1	1.8	–	2480	7240	2560	–
Cc1cc(Nc2nc(NCc3ccc(Cl)cc3)nc3c2cnn3CC(C)(C)O)n[nH]1	3.8	–	1940	16200	3980	–
Cc1cc(Nc2nc(NCc3ccc(F)cc3F)nc3c2cnn3C2CCNCC2)n[nH]1	0.7	231	410	2970	1080	–
Cc1cc(Nc2nc(N3CCNCC3)nc3[nH]ncc23)n[nH]1	533	1500	–	–	–	–
Cc1cc(Nc2nc(NCc3ccc(Cl)cc3)nc3c2cnn3CC(F)(F)F)n[nH]1	118	–	–	–	–	–
Cc1cc(Nc2nc(NCc3ccccc3F)nc3[nH]ncc23)n[nH]1	1	389	2310	13200	9850	–
Fc1ccc(-c2cc(Nc3nc(NCc4ccc(F)cc4F)nc4c3cnn4C3CCOCC3)n[nH]2)cc1	1290	–	–	–	–	–
Cc1cc(Nc2nc(NCc3ccc(F)cc3F)nc3c2cnn3CC(C)(C)O)n[nH]1	2.7	655	160	19400	2510	–
Cc1cc(Nc2nc(NCc3ccccc3)nc3[nH]ncc23)n[nH]1	21.2	1960	–	–	–	–

Compound	IC50 [1] [nM]	IC50 [2] [nM]	IC50 (MCF7) [nM]	IC50 (BT-474) [nM]	IC50 (MDA-MB-231) [nM]	also measured
Fc1ccc(CNc2nc(Nc3cc(-c4ccccc4)[nH]n3)c3cnn(C4CCOCC4)c3n2)c(F)c1	969	–	–	–	–	–
Cc1cc(Nc2nc(NCc3cccc(F)c3)nc3[nH]ncc23)n[nH]1	14.6	458	–	–	–	–
C=C[C@H]1C[N@@]2CC[C@H]1C[C@@H]2[C@@H](O)c1ccnc2ccc(OC)cc12 [QUINIDINE]	–	–	–	–	–	inhibition at 0.25 h, 10 µM (CYP2D6): 95.9%
Cc1cc(Nc2nc(NCc3ccc(F)cc3F)nc3c2cnn3C2CCCCC2)n[nH]1	7.9	–	810	6230	2960	–
Cc1cc(Nc2nc(NCc3c(F)cc(F)cc3F)nc3[nH]ncc23)n[nH]1	78.5	–	–	–	–	–
Fc1ccc(CNc2nc(Nc3n[nH]c4ccc(Cl)cc34)c3cnn(C4CCOCC4)c3n2)c(F)c1	3180	–	–	–	–	–
Cc1cc(Nc2nc(NCc3ccc(Cl)cc3)nc3c2cnn3C)n[nH]1	20.2	–	–	–	–	–
Cc1cc(Nc2nc(NCc3ccc(Cl)cc3)nc3c2cnn3C2CCOCC2)n[nH]1	4	–	1550	18300	9420	–
Cc1cc(Nc2nc(NCc3cccc(Br)c3)nc3[nH]ncc23)n[nH]1	23.3	4340	–	–	–	–
COc1c(Nc2cc(C)[nH]n2)nc(Sc2ccc(S(=O)(=O)Cc3cccc([N+](=O)[O-])c3F)cc2F)nc1N1CCOCC1	–	–	2270	10500	8690	–
Cc1cc(Nc2nc(Nc3ccccc3)nc3[nH]ncc23)n[nH]1	206	5900	–	–	–	–
Cc1cnc(Nc2nc(NCc3ccc(F)cc3F)nc3c2cnn3C2CCOCC2)s1	20.7	–	–	–	–	–
Cc1cc(Nc2nc(NCc3ccc(Cl)cc3)nc3c2cnn3C(C)C)n[nH]1	3.7	–	2040	13000	4860	–
Cc1cc(Nc2nc(NCc3ccccc3Cl)nc3[nH]ncc23)n[nH]1	0.7	668	4130	7160	4210	–
Cc1cc(Nc2nc(NCc3ccc(F)cc3F)nc3c2cnn3C)n[nH]1	17.5	–	–	–	–	–
Cc1cc(Nc2nc(NCc3ccccc3Br)nc3[nH]ncc23)n[nH]1	8.7	1090	14100	10100	3990	–
Cc1cc(Nc2nc(NC3CCNC3)nc3[nH]ncc23)n[nH]1 (configuration not stated)	454	1050	–	–	–	–
Cc1cc(Nc2nc(NC3CCNCC3)nc3[nH]ncc23)n[nH]1	484	273	–	–	–	–
Cc1cc(Nc2nc(NCc3ccc(F)c(F)c3)nc3[nH]ncc23)n[nH]1	22.2	–	–	–	–	–
CCc1cc(Nc2nc(NCc3ccc(F)cc3F)nc3c2cnn3C2CCOCC2)n[nH]1	0.7	–	1790	3060	2790	–
Cc1cc(Nc2nc(NCc3ccc(F)cc3F)nc3[nH]ncc23)n[nH]1	0.1	96.1	670	3220	2670	–
Fc1ccc(CNc2nc(Nc3n[nH]c4ccccc34)c3cnn(C4CCOCC4)c3n2)c(F)c1	536	–	–	–	–	–
